Measurements: US7892350B2, “Sacrificial agents for fly ash concrete” (Boral Material Technologies Inc., priority 2003, dated 2011)
Read-outs that look alike come from different tables or passages of the source.

Assay: Second sacrificial agent testing protocol: paste air measurements with DDBS (0.0125 wt %) and rating; on Overall performance rating (second protocol rating): key: 0: Fail; 1: Poor; 2: Good; 3: Preferred; 4: Most preferred; on SA Rating (0-4): key: 0: Fail; 1: Poor; 2: Good; 3: Preferred; 4: Most preferred
Procedure: The second sacrificial agents evaluation protocol has been designed to assess the relative potential value of candidate sacrificial agents with a maximum of five paste air measurements.
The first two measurements (of entrained air) are carried out with a standard AEA in a portland cement paste and in a FA:cement paste; these two tests provide reference values which can be used for the relative assessment of a series of sacrificial agents. The other three paste air measurements pertain to the properties and effectiveness of the sacrificial agents.
1. Measurement of the air entrained by a standard air-entraining admixture in a cement paste of fixed composition and fluidity; the latter is a reference system which provides ‘reference’ air entrainment values (‘A’ in FIG. 8).
2. […] The difference between ‘B’ and ‘A’ in FIG. 8 is the reduction in air entrainment due to the presence of the fly ash; this is illustrated as ‘C’ in FIG. 8.
In the present SA testing and evaluation protocol, the fly ash selected should remain the same for the entire set of additives tested, in order to provide reliable relative performance ranking. For the present series of test, the Fly Ash selected was the one identified as B1 in Table 1 below; the physico-chemical properties of this fly ash are reported in Table 1.
In testing for the relative performance of the sacrificial agent, the sacrificial agent dosage was chosen in the range 0-0.1 wt %, which corresponds to typical dosage values observed in paste, mortar and concrete tests reported in Tables 2, 3 and 4 and Tables 7 to 34.
3. Measurement of the air entrainment of the SA, by itself, in a cement-only paste at a dosage of 0.1 wt %; this is illustrated as ‘D’ in FIG. 8.
4. Measurement of the air entrained by DDBS in the FA-cement paste comprising 0.05% wt SA, under the same conditions as described in 2 above. The air entrainment value observed in this system, compared to that observed in the absence of the SA, yields the air recovery due to the SA, and is illustrated schematically as ‘E’ in FIG. 8.
5. Same as in 4 above, but with a higher SA concentration at 0.1 wt %; the air entrainment observed, again compared to the value observed in the absence of the SA, yields a second value of air recovery by the SA and is illustrated as ‘F’ in FIG. 8.
For the relative performance rating of the group of products chosen as potential SA and listed in Table 36, the following rating scheme (Tables A and B) was adopted (referring to FIG. 8 and quantities defined therein):
1: Chemical name of compound tested as potential sacrificial agent • Col. 2: Level of air entrainment by the candidate sacrificial agent, at a concentration of 0.1 wt %, in a Portland cement paste ([…]) • Col. […] 5: Sacrificial agent overall rating index (described below) • Col. 6: Hydrophilic-Lipophilic Balance (HLB) values of candidate sacrificial agent (source and significance of HLB data given below) • Col. 7: Logarithm of the Oil(octanol)/water partition coefficient (Kow) of the candidate sacrificial agents (source and significance of data given below).

[1] = Portland cement paste (PCA), […]
[2] = sacrificial agent overall rating index
[3] = B1 FA/cement paste, 0.0125 wt % DDBS, 0.05 wt % SA
[4] = B1 FA/cement paste, 0.0125 wt % DDBS, 0.10 wt % SA
[5] = sum of ratings of air entrainment recovery by 0.05% and 0.1% SA, DDBS 0.0125 wt %, 50:50 B1 fly ash:cement paste
[6] = Portland cement paste (PCA), 0.1 wt % SA, no DDBS

Compound | B1 + 0.0125% DDBS + 0.05% SA (air entrainment) (B1 FA/cement paste, […]) | B1 + 0.0125% DDBS + 0.1% SA (air entrainment) (B1 FA/cement paste, […]) | PCA + 0.1% SA (level of air entrainment by the candidate sacrificial agent) [1] | SA Rating (0-4) [2] | Overall performance rating (second protocol rating) | also measured
CO [Methanol] | 1.9 | 2.2 | 0.6 | 0 | – | –
CC[N+](CC)(CC)CC.[OH-] [Tetraethyl ammonium hydroxide] | – | – | – | – | – | B1 + 0.0125% DDBS + 0.05% SA (air entrainment): 2.3; B1 + 0.0125% DDBS + 0.1% SA (air entrainment): 3.0; PCA + 0.1% SA (level of air entrainment by the candidate sacrificial agent): 0.1; SA Rating (0-4): 0
O=P([O-])([O-])O.[Na+].[Na+] [Sodium phosphate dibasic] | – | – | 0.0 | 0 | – | B1 + 0.0125% DDBS + 0.05% SA (air entrainment) [3]: 2.1; B1 + 0.0125% DDBS + 0.1% SA (air entrainment) [4]: 2.3
O=C(O)c1cc(O)ccc1O [2,5-Dihydroxybenzoic acid] | 1.9 | 1.6 | 0.0 | 0 | – | –
CCCCN [n-butyl amine] | 5.7 | 8.1 | 1.2 | 4 | 4 | –
CCOCCO [Ethylene Glycol Ethyl Ether] | 5.0 | 6.8 | 1.2 | 4 | 4 | –
CC(C)COCCO [Ethylene Glycol iso-Butyl Ether] | – | – | 1.7 | 4 | – | B1 + 0.0125% DDBS + 0.05% SA (air entrainment) [3]: 8.8; B1 + 0.0125% DDBS + 0.1% SA (air entrainment) [4]: 9.5; Overall performance rating (second protocol rating) [5]: 4
POE (20) Sorbitan monolaurate [Tween®] | – | – | – | – | – | Overall performance rating (second protocol rating) [5]: 4
CCCC(=O)OCC [Ethylbutyrate] | 5.2 | 4.3 | 0.7 | 3 | 3 | –
OCCc1ccccc1 [Phenyl ethyl alcohol] | 4.5 | 5.5 | 0.7 | 3 | 3 | –
O=C(O)CCCCC(=O)O [Adipic acid] | 1.9 | 2.2 | 0.2 | 0 | – | –
C[N+](C)(C)Cc1ccccc1.[OH-] [Benzyltrimethyl ammonium hydroxide] | – | – | – | 0 | – | B1 + 0.0125% DDBS + 0.05% SA (air entrainment) [3]: 2.3; B1 + 0.0125% DDBS + 0.1% SA (air entrainment) [4]: 3.0; PCA + 0.1% SA (level of air entrainment by the candidate sacrificial agent) [6]: 1.0
CCN1CCCC1=O [1-Ethyl-2-Pyrrolidinone] | 4.3 | 5.6 | 2.5 | 3 | 3 | –
CCCCOCCO [Ethylene Glycol n-Butyl Ether] | 8.8 | 9.5 | 2.0 | 4 | 4 | –
CC(O)COc1ccccc1 (stereo not drawn) [Propylene Glycol Phenyl Ether] | – | – | 1.0 | 4 | – | B1 + 0.0125% DDBS + 0.05% SA (air entrainment) [3]: 7.2; B1 + 0.0125% DDBS + 0.1% SA (air entrainment) [4]: 6.7; Overall performance rating (second protocol rating) [5]: 4
Tetramethyl ammonium hydroxide | – | – | – | – | – | B1 + 0.0125% DDBS + 0.05% SA (air entrainment): 2.5; B1 + 0.0125% DDBS + 0.1% SA (air entrainment): 2.9; PCA + 0.1% SA (level of air entrainment by the candidate sacrificial agent): 0.1; SA Rating (0-4): 0
CCC(C)O (stereo not drawn) [2-Butanol] | – | – | – | – | 4 | B1 + 0.0125% DDBS + 0.05% SA (air entrainment): 6.0; B1 + 0.0125% DDBS + 0.1% SA (air entrainment): 6.6; PCA + 0.1% SA (level of air entrainment by the candidate sacrificial agent): 1.4; SA Rating (0-4): 4
O=S(=O)(O)c1ccc(O)cc1 [4-Hydroxybenzenesulfonic acid] | – | – | 0.1 | 0 | – | B1 + 0.0125% DDBS + 0.05% SA (air entrainment) [3]: 2.1; B1 + 0.0125% DDBS + 0.1% SA (air entrainment) [4]: 2.0
O=C(O)Cc1ccccc1 [Phenyl acetic acid] | 2.8 | 4.2 | 0.2 | 1 | 1 | –
CCCCCCCCCCCCCCCC(=O)OC [Methylpalmitate] | 5.3 | 3.4 | 2.5 | 2 | 2 | –
Polyethylene glycol 400 | – | – | – | – | – | Overall performance rating (second protocol rating) [5]: 4
CCCCOC(=O)c1ccccc1C(=O)OCCCC [N-Butyl phthalate] | – | – | – | 0 | – | B1 + 0.0125% DDBS + 0.05% SA (air entrainment) [3]: 2.2; B1 + 0.0125% DDBS + 0.1% SA (air entrainment) [4]: 2.1; PCA + 0.1% SA (level of air entrainment by the candidate sacrificial agent) [6]: 0.0
CCCCCO [1-Pentanol] | 4.9 | 4.7 | 0.9 | 3 | 3 | –
1-Octanol | – | – | 0.0 | 0 | – | B1 + 0.0125% DDBS + 0.05% SA (air entrainment) [3]: 2.1; B1 + 0.0125% DDBS + 0.1% SA (air entrainment) [4]: 1.4
OCCO [Ethylene Glycol] | – | – | – | – | – | B1 + 0.0125% DDBS + 0.05% SA (air entrainment): 2.4; B1 + 0.0125% DDBS + 0.1% SA (air entrainment): 2.8; PCA + 0.1% SA (level of air entrainment by the candidate sacrificial agent): 0.0; SA Rating (0-4): 0
CCCCCC(=O)O [Hexanoic acid] | 5.1 | 4.9 | 2.4 | 4 | 4 | –
CCCCCC(=O)OCC [Ethylcaproate] | – | – | 0.0 | 1 | – | B1 + 0.0125% DDBS + 0.05% SA (air entrainment) [3]: 4.3; B1 + 0.0125% DDBS + 0.1% SA (air entrainment) [4]: 2.4; Overall performance rating (second protocol rating) [5]: 1
CCC(C)=O [2-Butanone] | – | – | – | – | 1 | –
